PMC5513091, “A novel Alzheimer’s disease drug candidate targeting inflammation and fatty acid metabolism” (Alzheimer's Research & Therapy, 2017)

Columns and labels:
[1] = test system: Drebrin; test: Immunoblotting of hippocampal tissue; type: in vivo; details: hippocampus, AD mice fed CAD-31 vs AD mice not fed
Description: (§1) Hippocampal tissue samples were homogenized in 10 volumes of radioimmunoprecipitation assay (RIPA) lysis buffer (50 mM Tris, pH 7.5, 150 mM NaCl, 0.1% SDS, 0.5% deoxycholate, and 1% Nonidet P-40) containing a cocktail of protease and phosphatase inhibitors [[…] each of pepstatin A, aprotinin, phosphoramidon, and leupeptin; 0.5 mM 4-(2-aminoethyl)benzenesulfonyl fluoride hydrochloride; 1 mM ethylene glycol-bis(β-aminoethyl ether)-N,N,N′,N′-tetraacetic acid; 5 mM fenvalerate; and 5 mM cantharidin]. Samples were sonicated (2 × 10 seconds) and centrifuged first at 10,000 × g for 10 minutes and then at 100,000 × g for 60 minutes at 4 °C. The 100,000 × g pellet was taken up either in 6 M guanidine for Aβ analysis or in SDS sample buffer for Western blot analysis. Protein concentrations in the cell extracts were determined using a bicinchoninic acid protein assay (Pierce Biotechnology, Rockford, IL, USA). Equal amounts of protein were solubilized in 2.5× SDS sample buffer, separated on 12% SDS-polyacrylamide gels, transferred to Immobilon-P (EMD Millipore, Billerica, MA, USA), and immunoblotted with the antibodies indicated in the Materials subsection above. For Western blot experiments, protein levels were normalized to actin levels. An unpaired t test was performed to compare two groups at a single time point. When comparing multiple groups, one-way analysis of variance (ANOVA) followed by Tukey’s post hoc test was used. All statistical analysis was conducted using GraphPad InStat software.

[2] = test system: RAGE; test: Immunoblotting of hippocampal tissue; type: in vivo; details: hippocampus, AD mice
Description: as §1

[3] = test system: OSCP; test: Immunoblotting of hippocampal tissue; type: in vivo; details: hippocampus, control and AD mice
Description: as §1

[4] = test system: eIF2α phosphorylation; test: Immunoblotting of hippocampal tissue; type: in vivo; details: hippocampus, WT and old AD mice, 200 ppm in chow 3 months
Description: as §1

[5] = test system: Arc-1; test: Immunoblotting of hippocampal tissue; type: in vivo; details: hippocampus, AD mice fed CAD-31 vs AD mice not fed
Description: as §1

[6] = test system: clusterin; test: Immunoblotting of hippocampal tissue; type: in vivo; details: hippocampus, AD mice
Description: as §1

[7] = test system: AMPK phosphorylation; test: Immunoblotting of hippocampal tissue; type: in vivo; details: hippocampus, WT and old AD mice, 200 ppm in chow 3 months
Description: as §1

[8] = test system: VCAM; test: Immunoblotting of hippocampal tissue; type: in vivo; details: hippocampus, AD mice
Description: as §1

[9] = test system: Caco 2; test: Caco 2 Transport; type: in vitro ADME
[10] = test system: rat hippocampal neurons; test: Aβ toxicity (extracellular); type: cell-based; details: Hippocampal neuron, read-out: Half-maximal effective concentration, Aβ toxicity (extracellular)
[11] = test system: Aβ1–42; test: Aβ enzyme-linked immunosorbent assay; type: in vivo, mice
Description: as §1
Aβ1–42 levels in hippocampal lysate were analyzed using Aβ1–42 enzyme-linked immunosorbent assay kits from Invitrogen (catalogue number KHB3442). All kit reagents were brought to room temperature before use. […] A quantity of 50 μl of Aβ peptide standards and samples was added in duplicate to 96-well plates precoated with antibody to the NH2-terminal region of Aβ. […] Stop solution was then added at 100 μl to each well, followed by reading the absorbance of each well at 450 nm. […] The concentrations of the samples were calculated from the standard curve and multiplied by the dilution factor.

[12] = target: CYP 3A4 (Homo sapiens, UniProt P08684); test: CYP inhibition; type: in vitro ADME
[13] = test system: APPswe/PS1ΔE9 mice; design: method as in PMID 27149904; details: old APPswe/PS1ΔE9 mice fed from an early age, preventive strategy; cited from earlier work
[14] = target: Aβ1–42 (Homo sapiens, UniProt P05067); test: Thioflavin S Aβ1–42 aggregation assay; type: biochemical; details: data not shown
[15] = test system: APPswe/PS1∆E9 mice; test: Fear-conditioning assay; type: in vivo; details: AD mice fed 200 ppm in chow for 3 months from 10 months of age; day 2
Description: The APPswe/PS1∆E9-transgenic mice were characterized previously. Line 85 mice carry two transgenes, the mouse/human chimeric APPswe, linked to Swedish familial AD and human PS1∆E9. At 10 months of age, female transgenic mice were fed a defined diet (Harlan Teklad; Envigo, Indianapolis, IN, USA) with and without CAD-31 (200 ppm, approximately 10 mg/kg/day). Treatment continued for 3 months, followed by behavior testing and tissue harvesting.
Fear conditioning to either a cue or a context represents a form of associative learning. The readout that is measured in contextual and cued fear conditioning is a freezing response that occurs following the pairing of an unconditioned stimulus, such as a foot shock, with a conditioned stimulus, such as a particular context or cue (tone). The mouse will freeze if it remembers and associates that environment with the aversive stimulus. The hippocampus and the amygdala are required for fear memory, where the hippocampus is involved in the formation and retrieval of context fear associations and the amygdala is involved in conditioning and recall of associations to contextual and discrete cues. […] On day 2, the time spent freezing is measured over the entire time in the chamber. […] The percentage of time spent freezing by each mouse is averaged per group, and then groups can be compared and p values calculated to determine statistical significance.

[16] = brain of CAD-31 treated hAPPswe/PS1ΔE9 mice (AD+31)

CYP 3A4, sequence (P08684 whole entry): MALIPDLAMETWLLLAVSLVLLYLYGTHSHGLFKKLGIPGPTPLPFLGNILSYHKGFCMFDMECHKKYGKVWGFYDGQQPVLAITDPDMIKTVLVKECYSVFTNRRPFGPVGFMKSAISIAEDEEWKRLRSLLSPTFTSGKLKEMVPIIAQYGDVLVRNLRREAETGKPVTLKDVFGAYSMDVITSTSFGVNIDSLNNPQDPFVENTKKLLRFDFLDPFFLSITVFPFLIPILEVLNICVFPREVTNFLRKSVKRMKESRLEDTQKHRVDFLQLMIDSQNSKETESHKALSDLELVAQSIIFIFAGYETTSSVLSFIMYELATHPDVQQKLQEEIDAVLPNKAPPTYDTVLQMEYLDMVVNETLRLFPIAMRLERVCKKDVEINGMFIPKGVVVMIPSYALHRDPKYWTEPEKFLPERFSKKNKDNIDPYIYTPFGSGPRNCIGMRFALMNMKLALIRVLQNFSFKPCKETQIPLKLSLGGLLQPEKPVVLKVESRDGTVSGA
Aβ1–42 (Homo sapiens, UniProt P05067), sequence (P05067 672-713 limits assumed): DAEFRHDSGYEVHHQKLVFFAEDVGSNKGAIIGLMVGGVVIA

In the case of `Cc1ccc(N(/N=C/c2cccc(OC(F)(F)F)c2)C(=O)C(F)(F)F)c(C)c1` [CAD-31], the Drebrin expression [1] is reported as “increased expression of both proteins”, the RAGE expression [2] is reported as “reduced the expression” and the OSCP expression [3] is reported as “increased expression of OSCP in both control and AD mice”. For the same compound, the “eIF2α phosphorylation (ratio to total eIF2α)” value [4] was “stimulates eIF2α phosphorylation in both WT and old AD mice”, the Arc-1 expression [5] was “increased expression of both proteins” and the clusterin expression [6] was “reduced the expression”. The “AMPK activation by phosphorylation (ratio to total AMPK)” value [7] was “enhanced”, the VCAM expression [8] was “reduced the expression” and the “Caco 2 Transport” value [9] was “High”. For the same compound, the EC50 [10] was 27 nM, the “RIPA Insoluble Aβ1-42” value [11, 16] was 4581 ± 489.3 pg/mg protein and the “RIPA Soluble Aβ1-42” value [11, 16] was 16.57 ± 3.359 pg/mg protein. For the same compound, the “levels of soluble or insoluble Aβ1–42” value ([11]; therapeutic paradigm, AD mice) was “did not reduce the levels of either soluble or insoluble Aβ1–42”, the EC50 at 10 µM [12] was over 10000 nM and the “division of NPCs in the subventricular zone” value [13] was “stimulates the division of NPCs in the subventricular zone”. For the same compound, the “binding to and direct inhibition of Aβ1–42 aggregation” value [14] was “Neither J147 nor CAD-31 binds to and directly inhibits Aβ1–42 aggregation” and the “time freezing in response to the context” value [15] was “more time freezing in response to the context”.
